Assay results: patent US20130123222A1, “Synergistic Anti-Cancer Activity of SR16388 with Anti-Mitotic Drugs” (SRI INTERNATIONAL, INC., priority 2011, published 2013)
Numbered stars: 1 amine (or outer) side, 2 acyl side, 3 side chain; on linkers, the order of the positions; unused ones are H or OH. Bridge positions count the residues as written; N and C are the ends. Square brackets hold non-standard residues; d marks the D form. Peptide text beside a SMILES is read from it. I, II: the chains in the order shown. Actinocin(9to1) = Cc1c2oc3c(C)ccc(C(=O)[*:1])c3nc-2c(C(=O)[*:2])c(N)c1=O; NMeV = CN[C@H](C(=O)O)C(C)C; Sar = CNCC(=O)O

Key:
[1] = tested on: panel of 48 to 60 cell lines; assay: 5×4 combination screen with SR16388; synergism hit rate by algorithm (Z score); format: cell-based; conditions: in combination with SR16388, all 20 (5×4) dose combinations
Protocol: (§1) SR16388 was synthesized in house.
5) A “combination score” was assigned to each specific combination (Ca1b1x): C=1 if Za1b1x>3*SD and C=0 if Za1b1x≦3*SD score);
6) Hit rate of each combination was calculated by comparing the sum of the combination scores of all 20 (5×4) dose combinations with all cell lines to the total number of data points of that specific combination;
7) Hit rate were ranked from high to low to identify potential synergistic combinations.

[2] = tested on: panel of 48 to 60 cell lines; assay: 5×4 combination screen with SR16388, CellTiter-Glo viability; synergy by pattern recognition; conditions: in combination with SR16388, 5x4-T1; for no effect (number of cell lines) / synergy (number of cell lines): pattern recognition, of 60 cell lines incl. no data; for % synergy: share of cell lines with data
Protocol: Cells were treated with compounds alone or in combination for three days and CellTiter-Glo® Luminescent Cell Viability Assay (Promega Corp.) was used as the endpoint to measure cell viability.
Cells were cultured in DMEM with 10% fetal bovine serum and used between passage 2 and passage 20. Cells were harvested on Day-1 (FIG. 1A) and re-supspended to the corresponding seeding density and seeded with Wellmate (ThermoFisher) to 384 plates (BD or GBO).
40 mM Compound stocks in 100% DMSO were made. Master plates were made with Janus (PerkinElmer), then further diluted and added to the cell plates with Matrix Platemate (Thermo) on Day 0.
CellTiter-Glo® Luminescent Cell Viability Assay (Promega Corp.) was used to measure ATP as an indicator of viable cells on Day 3 using Envision (PerkinElmer) and back up reader Analyst HT (MDS) and Gen5 (BioTek).
Single point, 5×4 checkque board platemap was used in the initial screening.
Relative Luminescent Units (RLU) were plotted against corresponding drug concentrations and fitted with standard four parameter sigmoidal curve with custom coded R program or Calcusyn (Biosoft, Cambridge, UK).

cancer cell lines = assay: Combination cell viability assay, general observations on ratios and confirmed synergy; format: cell-based; conditions: in combination with SR16388
Protocol: Cells were treated with compounds alone or in combination for three days and CellTiter-Glo® Luminescent Cell Viability Assay (Promega Corp.) was used as the endpoint to measure cell viability. […] Cells were harvested on Day-1 (FIG. 1A) and re-supspended to the corresponding seeding density and seeded with Wellmate (ThermoFisher) to 384 plates (BD or GBO). […] Master plates were made with Janus (PerkinElmer), then further diluted and added to the cell plates with Matrix Platemate (Thermo) on Day 0. CellTiter-Glo® Luminescent Cell Viability Assay (Promega Corp.) was used to measure ATP as an indicator of viable cells on Day 3 using Envision (PerkinElmer) and back up reader Analyst HT (MDS) and Gen5 (BioTek). Relative Luminescent Units (RLU) were plotted against corresponding drug concentrations and fitted with standard four parameter sigmoidal curve with custom coded R program or Calcusyn (Biosoft, Cambridge, UK).

[3] = tested on: various cancer cell lines; assay: 11×7 synergism hit rate over all cell lines (by algorism); format: cell-based; conditions: when tested with SR16388
Text: as §1
Within the same type of cancer cells, some cell lines have more synergistic hits than others. Melanoma and breast cancer cell lines had the highest hit rate.

[4] = Prior in vivo xenograft study and other safety data

Compound | % hit/combo [1] | no effect (number of cell lines) [2] | synergy (number of cell lines) [2] | % synergy [2] | interaction with SR16388 (confirmed) (cancer cell lines) | hit rate [3] | overlapping toxicities with microtubulin inhibitors [4] | tolerability [4]
Nc1nc(Cl)nc2c1ncn2[C@H]1C[C@H](O)[C@@H](CO)O1 [Cladribine] | 0.67% | 42 | 0 | 0% | – | – | – | –
Cc1ccc(-c2cc(C(F)(F)F)nn2-c2ccc(S(N)(=O)=O)cc2)cc1 [Celecoxib] | 0.67% | 42 | 0 | 0% | – | – | – | –
CS(=O)(=O)CCNCc1ccc(-c2ccc3ncnc(Nc4ccc(OCc5cccc(F)c5)c(Cl)c4)c3c2)o1 [Lapatinib] | 0.67% | 55 | 3 | 5% | – | – | – | –
N#Cc1ccc(C(c2ccc(C#N)cc2)n2cncn2)cc1 [Letrozole] | 0.42% | 42 | 0 | 0% | – | – | – | –
COc1nc(N)nc2c1ncn2[C@@H]1O[C@H](CO)[C@@H](O)[C@@H]1O [Nelarabine] | 0.33% | 58 | 0 | 0% | – | – | – | –
N.N.O=C([O-])C1(C(=O)[O-])CCC1.[Pt+2] [Carboplatin] | 0.83% | 41 | 1 | 2% | – | – | – | –
Nc1ccn([C@@H]2O[C@H](CO)[C@@H](O)[C@@H]2O)c(=O)n1 [Cytarabine] | 0.33% | 42 | 0 | 0% | – | – | – | –
CCN(CC)CCNC(=O)c1c(C)[nH]c(/C=C2\C(=O)Nc3ccc(F)cc32)c1C [Sunitinib] | 1.25% | 56 | – | – | – | – | – | –
Nc1ccn([C@@H]2O[C@H](CO)[C@@H](O)C2(F)F)c(=O)n1 [Gemcitabine] | 0.83% | 58 | 0 | 0% | – | – | – | –
CC/C(=C(\c1ccccc1)c1ccc(OCCN(C)C)cc1)c1ccccc1 [Tamoxifen] | 0.83% | 39 | 3 | 7% | – | – | – | –
CCCCCOC(=O)Nc1nc(=O)n([C@@H]2O[C@H](C)[C@@H](O)[C@H]2O)cc1F [Capecitabine] | 1.08% | 58 | 0 | 0% | – | – | – | –
Nc1nc(F)nc2c1ncn2[C@@H]1O[C@H](CO)[C@@H](O)[C@@H]1O [FluroaraA] | 0.67% | 42 | 0 | 0% | – | – | – | –
CCc1c2c(nc3ccc(O)cc13)-c1cc3c(c(=O)n1C2)COC(=O)[C@]3(O)CC [SN38] | 0.58% | 45 | 13 | 22% | – | – | – | –
Cc1cn(-c2cc(NC(=O)c3ccc(C)c(Nc4nccc(-c5cccnc5)n4)c3)cc(C(F)(F)F)c2)cn1 [Nilotinib] | 0.33% | 42 | 0 | 0% | – | – | – | –
CCC1=C[C@@H]2CN(C1)Cc1c([nH]c3ccccc13)[C@@](C(=O)OC)(c1cc3c(cc1OC)N(C)[C@H]1[C@@](O)(C(=O)OC)[C@H](OC(C)=O)[C@]4(CC)C=CCN5CC[C@]31[C@@H]54)C2 [Vinorelbine] | – | – | – | – | synergistic anti-proliferation effect | – | – | –
Cn1nnc2c(C(N)=O)ncn2c1=O [Temozolomide] | 0.75% | 42 | – | – | – | – | – | –
CO[C@H]1C[C@@H]2CC[C@@H](C)[C@@](O)(O2)C(=O)C(=O)N2CCCC[C@H]2C(=O)O[C@H]([C@H](C)C[C@@H]2CC[C@@H](O)[C@H](OC)C2)CC(=O)[C@H](C)/C=C(\C)[C@@H](O)[C@@H](OC)C(=O)[C@H](C)C[C@H](C)/C=C/C=C/C=C/1C [Rapamycin] | 0.83% | 54 | – | – | – | – | – | –
O=C(CCCCCCC(=O)Nc1ccccc1)NO [Vorinostat] | 0.83% | 58 | 0 | 0% | – | – | – | –
Cc1c2oc3c(C)ccc(C(=O)N[C@@H]4C(=O)N[C@H](C(C)C)C(=O)N5CCC[C@H]5C(=O)N(C)CC(=O)N(C)[C@@H](C(C)C)C(=O)O[C@@H]4C)c3nc-2c(C(=O)N[C@@H]2C(=O)N[C@H](C(C)C)C(=O)N3CCC[C@H]3C(=O)N(C)CC(=O)N(C)[C@@H](C(C)C)C(=O)O[C@@H]2C)c(N)c1=O [Actinomycin] (I: T[dV]P[Sar][NMeV] / II: T[dV]P[Sar][NMeV]; ester I:1-I:C, II:1-II:C; linker I:N-II:N via Actinocin(9to1)) | 1.67% | 39 | – | – | – | 1.89% | – | –
C[C@@H]1Cc2cc(O)ccc2[C@H]2CC[C@]3(C)/C(=C/COCCN(C)C)CC[C@H]3[C@H]12 [SR16388] | – | – | – | – | – | – | does not have ovelapping toxicities | well tolerated
CC1=C(/C=C/C(C)=C/C=C/C(C)=C/C(=O)O)C(C)(C)CCC1 [Tretinoin] | 0.58% | 42 | 0 | 0% | – | – | – | –
C/C=C1\NC(=O)[C@H]2CSSCC/C=C/[C@H](CC(=O)N[C@H](C(C)C)C(=O)N2)OC(=O)[C@H](C(C)C)NC1=O [Romidepsin] | 0.75% | 52 | 6 | 10% | – | – | – | –
Nc1nc(Cl)nc2c1ncn2[C@@H]1O[C@H](CO)[C@@H](O)[C@@H]1F [Clofarabine] | 0.50% | 58 | – | – | – | – | – | –
CO[C@H]1C[C@@H]2CC[C@@H](C)[C@@](O)(O2)C(=O)C(=O)N2CCCC[C@H]2C(=O)O[C@H]([C@H](C)C[C@@H]2CC[C@@H](OCCO)[C@H](OC)C2)CC(=O)[C@H](C)/C=C(\C)[C@@H](O)[C@@H](OC)C(=O)[C@H](C)C[C@H](C)/C=C/C=C/C=C/1C [Everolimus] | 0.42% | 58 | 0 | 0% | – | – | – | –
S=P(N1CC1)(N1CC1)N1CC1 [Thiotepa] | 0.83% | 42 | – | – | – | – | – | –
O=c1[nH]c(=O)n([C@H]2C[C@H](O)[C@@H](CO)O2)cc1F [Floxuridine] | 0.67% | 42 | 0 | 0% | – | – | – | –
Cc1nc(Nc2ncc(C(=O)Nc3c(C)cccc3Cl)s2)cc(N2CCN(CCO)CC2)n1 [Dasatinib] | 1.08% | 50 | 8 | 14% | – | – | – | –
Cc1ccc(NC(=O)c2ccc(CN3CCN(C)CC3)cc2)cc1Nc1nccc(-c2cccnc2)n1 [Imatinib] | 0.92% | 41 | 1 | 2% | – | – | – | –
